In patent US12187721B2, “Protein tyrosine phosphatase inhibitors” (Array BioPharma Inc., priority 2018, dated 2025):

Each compound was assayed against T1, full-length SHP2 (His6-tagged SHP2(2-527)) (Homo sapiens, UniProt Q06124) (assay: SHP2 Enzymatic Assay (fluorescence intensity kinetic assay, DiFMUP hydrolysis)).
T1 construct: His6-tagged SHP2(2-527); His6; made in house; host or cells: E. coli
Type: biochemical
Procedure: A fluorescence intensity kinetic assay was configured for full-length SHP2 that monitors the amount of 6,8-difluoro-7-hydroxy-4-methylcoumarin (“DiFMU”) formed upon hydrolysis of 6,8-difluoro-4-methylumbelliferyl phosphate (“DiFMUP”) by SHP2. Assay mixtures consisted of 25 mM K^+HEPES, pH 7.4, 0.01% Triton X-100, 1 mM DTT, 50 mM KCl, 100 μg/mL bovine γ-globulin, 50 μM DiFMUP, 1 μM SHP2 activating peptide (LN(pY)IDLDLV(dPEG8)LST(pY)ASINFQK-amide), 1 nM full-length SHP2 (His6-tagged SHP2(2-527), recombinantly expressed in E. coli and purified in-house) and 2% dimethylsulfoxide (“DMSO”) (from compound). […] The assay was run in 384-well, polystyrene, low-volume, non-treated, black microtiter plates (Costar 4511) in a final volume of 20 μL. Low control wells lacked enzyme. The assays were initiated by the addition of a mixture of SHP2 and the activating peptide, and following a 15 second mix on an orbital shaker, were read in kinetic mode for 15 minutes (30 seconds/cycle) at ambient temperature on a PerkinElmer EnVision microplate reader (λEx=355 nm, λEm=460 nm). Initial velocities (slopes of the tangents at t=0) were estimated from exponential fits to the slightly nonlinear progress curves and then were converted to percent of control (“POC”) using the following equation:
[formula] • Where: Xmax Average Uninhibited Controls • Xmin Average Background A 4-parameter logistic model was the fit to the POC data for each compound. From that fit, the IC50 was estimated and is defined as the concentration of compound at which the curve crosses 50 POC.
The reported IC50 in Table 1 may be from a single assay or the mean of multiple assays.

T1 sequence (Q06124 2-527): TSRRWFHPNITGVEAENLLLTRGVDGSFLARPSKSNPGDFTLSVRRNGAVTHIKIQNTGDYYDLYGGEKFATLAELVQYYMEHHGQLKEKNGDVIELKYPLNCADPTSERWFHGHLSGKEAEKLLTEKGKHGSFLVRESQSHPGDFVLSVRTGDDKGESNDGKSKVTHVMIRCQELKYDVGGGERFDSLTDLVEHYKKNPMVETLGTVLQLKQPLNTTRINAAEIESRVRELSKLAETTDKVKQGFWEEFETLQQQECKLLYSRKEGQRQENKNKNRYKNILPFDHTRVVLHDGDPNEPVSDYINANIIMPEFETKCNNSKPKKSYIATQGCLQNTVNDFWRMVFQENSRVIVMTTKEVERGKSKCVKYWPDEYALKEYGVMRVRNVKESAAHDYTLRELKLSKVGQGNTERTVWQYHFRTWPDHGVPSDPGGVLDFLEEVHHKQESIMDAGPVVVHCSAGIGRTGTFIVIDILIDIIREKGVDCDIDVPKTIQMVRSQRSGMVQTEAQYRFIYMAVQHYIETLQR

Structure (SMILES) | IC50 [nM]
N[C@H]1C[C@@H]2CN(c3cnc4nc(Sc5cccc(Cl)c5Cl)ccc4n3)C[C@H]1O2 [Example 59, (1R,5R,6S)-3-(6-((2,3-dichlorophenyl)thio)pyrido[2,3-b]pyrazin-2-yl)-8-oxa-3-azabicyclo[3.2.1]octan-6-amine] | 405
CC(C)(N)C1CCN(c2cnc3nc(Sc4ccnc(N)c4Cl)ccc3n2)CC1 [Example 60, 4-((2-(4-(2-aminopropan-2-yl)piperidin-1-yl)pyrido[2,3-b]pyrazin-6-yl)thio)-3-chloropyridin-2-amine] | 245
CC(C)(N)C1CCN(c2cnc3nc(Sc4cccc(Cl)c4Cl)ccc3n2)CC1 [Example 61, 2-(1-(6-((2,3-dichlorophenyl)thio)pyrido[2,3-b]pyrazin-2-yl)piperidin-4-yl)propan-2-amine] | 1570
NCC1CN(c2cnc3nc(Sc4ccnc(N)c4Cl)ccc3n2)CCO1 (stereo not shown) [Example 62, 4-((2-(2-(aminomethyl)morpholino)pyrido[2,3-b]pyrazin-6-yl)thio)-3-chloropyridin-2-amine] | 165
NCC1CN(c2cnc3nc(Sc4cccc(Cl)c4Cl)ccc3n2)CCO1 (stereo not shown) [Example 63, (4-(6-((2,3-dichlorophenyl)thio)pyrido[2,3-b]pyrazin-2-yl)morpholin-2-yl)methanamine] | 280
NCC1CN(c2cnc3nc(-c4cccc(Cl)c4Cl)ccc3n2)CCO1 (stereo not shown) [Example 64, (4-(6-(2,3-dichlorophenyl)pyrido[2,3-b]pyrazin-2-yl)morpholin-2-yl)methanamine] | 730
NCC1CN(c2cnc3nc(-c4ccccc4)ccc3n2)CCO1 (stereo not shown) [Example 65, (4-(6-phenylpyrido[2,3-b]pyrazin-2-yl)morpholin-2-yl)methanamine] | 5760
C[C@@H]1OCC2(CCN(c3cnc4nc(-c5ccccc5)ccc4n3)CC2)[C@@H]1N [Example 66, (3S,4S)-3-methyl-8-(6-phenylpyrido[2,3-b]pyrazin-2-yl)-2-oxa-8-azaspiro[4.5]decan-4-amine] | 2750
C[C@@H]1OCC2(CCN(c3cnc4nc(Sc5cc(N)nc(Cl)c5Cl)ccc4n3)CC2)[C@@H]1N [Example 68, (3S,4S)-8-(6-((6-amino-2,3-dichloropyridin-4-yl)thio)pyrido[2,3-b]pyrazin-2-yl)-3-methyl-2-oxa-8-azaspiro[4,5]decan-4-amine] | 69
C[C@@H]1OCC2(CCN(c3cnc4nc(N5CCCc6ccccc65)ccc4n3)CC2)[C@@H]1N [Example 69, (3S,4S)-8-(6-(3,4-dihydroquinolin-1(2H)-yl)pyrido[2,3-b]pyrazin-2-yl)-3-methyl-2-oxa-8-azaspiro[4,5]decan-4-amine] | 79
C[C@@H]1OCC2(CCN(c3cnc4nc(N5CCNc6ccccc65)ccc4n3)CC2)[C@@H]1N [Example 70, (3S,4S)-8-(6-(3,4-dihydroquinoxalin-1(2H)-yl)pyrido[2,3-b]pyrazin-2-yl)-3-methyl-2-oxa-8-azaspiro[4.5]decan-4-amine] | 5970
Cc1c(Sc2ccc3nc(N4CCC5(CC4)CO[C@@H](C)[C@H]5N)cnc3n2)ccnc1N [Example 72, (3S,4S)-8-(6-((2-amino-3-methylpyridin-4-yl)thio)pyrido[2,3-b]pyrazin-2-yl)-3-methyl-2-oxa-8-azaspiro[4,5]decan-4-amine] | 149
CC1(N)CCCN(c2cnc3nc(Sc4ccnc(N)c4Cl)ccc3n2)CC1 (stereo not shown) [Example 73, 1-(6-((2-amino-3-chloropyridin-4-yl)thio)pyrido[2,3-b]pyrazin-2-yl)-4-methylazepan-4-amine] | 35
C[C@@H]1OCC2(CCN(c3cnc4nc(Sc5ccnc(N6CCS(=O)(=O)CC6)c5Cl)ccc4n3)CC2)[C@@H]1N [Example 77, 4-(4-((2-((3S,4S)-4-amino-3-methyl-2-oxa-8-azaspiro[4.5]decan-8-yl)pyrido[2,3-b]pyrazin-6-yl)thio)-3-chloropyridin-2-yl)thiomorpholine 1,1-dioxide] | 344
C[C@@H]1OCC2(CCN(c3cnc4nc(Sc5ccnc(N6CCOCC6)c5Cl)ccc4n3)CC2)[C@@H]1N [Example 79, (3S,4S)-8-(6-((3-chloro-2-morpholinopyridin-4-yl)thio)pyrido[2,3-b]pyrazin-2-yl)-3-methyl-2-oxa-8-azaspiro[4,5]decan-4-amine] | 425
CC(=O)N1CCN(c2nccc(Sc3ccc4nc(N5CCC6(CC5)CO[C@@H](C)[C@H]6N)cnc4n3)c2Cl)CC1 [Example 80, 1-(4-(4-((2-((3S,4S)-4-amino-3-methyl-2-oxa-8-azaspiro[4.5]decan-8-yl)pyrido[2,3-b]pyrazin-6-yl)thio)-3-chloropyridin-2-yl)piperazin-1-yl)ethan-1-one] | 743

Structure (SMILES) | IC50 [nM]
Nc1nccc(Sc2ccc3nc(N4CCC(N)CC4)cnc3n2)c1Cl [Example 81, 4-((2-(4-aminopiperidin-1-yl)pyrido[2,3-b]pyrazin-6-yl)thio)-3-chloropyridin-2-amine] | 72
Nc1nccc(Sc2ccc3nc(N4CC[C@@H](N)[C@H](O)C4)cnc3n2)c1Cl [Example 82, (3R,4R)-4-amino-1-(6-((2-amino-3-chloropyridin-4-yl)thio)pyrido[2,3-b]pyrazin-2-yl)piperidin-3-ol] | 65
Nc1nccc(Sc2ccc3nc(N4CCC5(CCCC5N)C4)cnc3n2)c1Cl (stereo not shown) [Example 83, 2-(6-((2-amino-3-chloropyridin-4-yl)thio)pyrido[2,3-b]pyrazin-2-yl)-2-azaspiro[4.4]nonan-6-amine] | 173
Nc1nccc(Sc2ccc3nc(N4CC[C@@H](N)[C@@H](O)C4)cnc3n2)c1Cl [Example 84, (3S,4R)-4-amino-1-(6-((2-amino-3-chloropyridin-4-yl)thio)pyrido[2,3-b]pyrazin-2-yl)piperidin-3-ol] | 102
NCC1CN(c2cnc3nc(Sc4ccnc(N)c4Cl)ccc3n2)C1 [Example 85, 4-((2-(3-(aminomethyl)azetidin-1-yl)pyrido[2,3-b]pyrazin-6-yl)thio)-3-chloropyridin-2-amine] | 481
NCC1(CO)CCN(c2cnc3nc(Sc4ccnc(N)c4Cl)ccc3n2)CC1 [Example 86, (1-(6-((2-amino-3-chloropyridin-4-yl)thio)pyrido[2,3-b]pyrazin-2-yl)-4-(aminomethyl)piperidin-4-yl)methanol] | 53
C[C@@H]1OCC2(CCN(c3cnc4nc(Sc5ccnc(N6CC[C@H](CO)C6)c5Cl)ccc4n3)CC2)[C@@H]1N [Example 87, ((S)-1-(4-((2-((3S,4S)-4-amino-3-methyl-2-oxa-8-azaspiro[4.5]decan-8-yl)pyrido[2,3-b]pyrazin-6-yl)thio)-3-chloropyridin-2-yl)pyrrolidin-3-yl)methanol] | 126
C[C@@H]1OCC2(CCN(c3cnc4nc(Sc5ccnc(N6CC[C@H](O)C6)c5Cl)ccc4n3)CC2)[C@@H]1N [Example 88, (S)-1-(4-((2-((3S,4S)-4-amino-3-methyl-2-oxa-8-azaspiro[4.5]decan-8-yl)pyrido[2,3-b]pyrazin-6-yl)thio)-3-chloropyridin-2-yl)pyrrolidin-3-ol] | 105
C[C@@H]1OCC2(CCN(c3cnc4nc(Sc5ccnc(N6CCC(O)C6)c5Cl)ccc4n3)CC2)[C@@H]1N (stereo partly drawn) [Example 89, 1-(4-((2-((3S,4S)-4-amino-3-methyl-2-oxa-8-azaspiro[4.5]decan-8-yl)pyrido[2,3-b]pyrazin-6-yl)thio)-3-chloropyridin-2-yl)pyrrolidin-3-ol] | 79
C[C@@H]1OCC2(CCN(c3cnc4nc(Sc5ccnc(CO)c5Cl)ccc4n3)CC2)[C@@H]1N [Example 90, (4-((2-((3S,4S)-4-amino-3-methyl-2-oxa-8-azaspiro[4.5]decan-8-yl)pyrido[2,3-b]pyrazin-6-yl)thio)-3-chloropyridin-2-yl)methanol] | 183
CN(C)C1C[C@@H]2CC[C@@H](C1)N2c1cnc2nc(Sc3ccnc(N)c3Cl)ccc2n1 (stereo partly drawn) [Example 92, (1R,3s,5S)-8-(6-((2-amino-3-chloropyridin-4-yl)thio)pyrido[2,3-b]pyrazin-2-yl)-N,N-dimethyl-8-azabicyclo[3.2.1]octan-3-amine] | 66
CNC1C[C@@H]2CC[C@@H](C1)N2c1cnc2nc(Sc3ccnc(N)c3Cl)ccc2n1 (stereo partly drawn) [Example 93, (1S,3s,5S)-8-(6-((2-amino-3-chloropyridin-4-yl)thio)pyrido[2,3-b]pyrazin-2-yl)-N-methyl-8-azabicyclo[3.2.1]octan-3-amine] | 49
Cc1nccc(Sc2ccc3nc(N4CCC(C)(N)CC4)cnc3n2)c1Cl [Example 94, 1-(6-((3-chloro-2-methylpyridin-4-yl)thio)pyrido[2,3-b]pyrazin-2-yl)-4-methylpiperidin-4-amine] | 49
CC1(N)CCN(c2cnc3nc(Sc4cccnc4N)ccc3n2)CC1 [Example 95, 3-((2-(4-amino-4-methylpiperidin-1-yl)pyrido[2,3-b]pyrazin-6-yl)thio)pyridin-2-amine] | 4720
Cc1nc(Cl)ccc1Sc1ccc2nc(N3CCC(C)(N)CC3)cnc2n1 [Example 96, 1-(6-((6-chloro-2-methylpyridin-3-yl)thio)pyrido[2,3-b]pyrazin-2-yl)-4-methylpiperidin-4-amine] | 503
